Source: paper PMC4243253 (Biochemical Journal, 2014)
Where two headings read alike, the source gives them in different places.

Key:
BaKynB [1] = target: T1, BaKynB (Bacillus anthracis, UniProt Q81PP9); assay: biochemical
T1 construct: gene kynB

BaKynB [2] = target: T1, BaKynB; assay: biochemical; remark: listed apart in the source

T1 sequence (Q81PP9 whole entry, looked up): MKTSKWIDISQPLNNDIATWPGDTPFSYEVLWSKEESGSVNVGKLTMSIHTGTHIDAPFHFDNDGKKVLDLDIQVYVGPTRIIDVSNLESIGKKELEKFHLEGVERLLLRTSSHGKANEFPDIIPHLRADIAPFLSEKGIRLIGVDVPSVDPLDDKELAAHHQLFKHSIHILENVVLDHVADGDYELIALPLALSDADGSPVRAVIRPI

Row | SMILES | Kd (BaKynB [1]) [µM] | Kd (BaKynB [2]) [µM]
1 | CC(=O)c1ccccc1N [2-aminoacetophenone] | ~50 | –
2 | Nc1ccccc1C(=O)C[C@H](N)C(=O)O [L-kynurenine, (S)-2-amino-4-(2-aminophenyl)-4-oxobutanoic acid] | – | ~60
